# Results as given in ChEMBL document CHEMBL5303573, “Mapping human microbiome drug metabolism by gut bacteria and their genes” (Nature, 2019).
# Assays:
# [1] = The drug is tested on Bifidobacterium breve strain: DSM20213 for biotransformation. The drug concentrations were measured before and after a 12-h incubation by liquid-chromatography-coupled mass spectrometry (LC–MS); conditions: 2 µM
# [2] = The drug is tested on Bifidobacterium longum subsp. Infantis strain: CCUG52486 for biotransformation. The drug concentrations were measured before and after a 12-h incubation by liquid-chromatography-coupled mass spectrometry (LC–MS); conditions: 2 µM
# [3] = The drug is tested on Collinsella intestinalis strain: DSM13280 for biotransformation. The drug concentrations were measured before and after a 12-h incubation by liquid-chromatography-coupled mass spectrometry (LC–MS); conditions: 2 µM
# [4] = The drug is tested on Bacteroides pectinophilus strain: ATCC43243 for biotransformation. The drug concentrations were measured before and after a 12-h incubation by liquid-chromatography-coupled mass spectrometry (LC–MS); conditions: 2 µM
# [5] = The drug is tested on Bacteroides sp. WH2 strain: WH2 for biotransformation. The drug concentrations were measured before and after a 12-h incubation by liquid-chromatography-coupled mass spectrometry (LC–MS); conditions: bacteroides sp. wh2, 12 h, 2 µM
# [6] = The drug is tested on Bacteroides xylanisolvens strain: DSM18836 for biotransformation. The drug concentrations were measured before and after a 12-h incubation by liquid-chromatography-coupled mass spectrometry (LC–MS); conditions: 2 µM
# [7] = The drug is tested on Blautia hansenii strain: DSM20583 for biotransformation. The drug concentrations were measured before and after a 12-h incubation by liquid-chromatography-coupled mass spectrometry (LC–MS); conditions: 2 µM
# [8] = The drug is tested on Clostridium symbiosum strain: ATCC14940 for biotransformation. The drug concentrations were measured before and after a 12-h incubation by liquid-chromatography-coupled mass spectrometry (LC–MS); conditions: 2 µM
# [9] = The drug is tested on Eubacterium hallii strain: DSM3353 for biotransformation. The drug concentrations were measured before and after a 12-h incubation by liquid-chromatography-coupled mass spectrometry (LC–MS); conditions: anaerobutyricum hallii, 2 µM
# [10] = The drug is tested on Eubacterium ventriosum strain: ATCC27560 for biotransformation. The drug concentrations were measured before and after a 12-h incubation by liquid-chromatography-coupled mass spectrometry (LC–MS); assay type: ADME; design: dose 2 uM, timepoint 0 vs 12 hours; conditions: 2 µM
# [11] = The drug is tested on Ruminococcus gnavus strain: ATCC29149 for biotransformation. The drug concentrations were measured before and after a 12-h incubation by liquid-chromatography-coupled mass spectrometry (LC–MS); conditions: mediterraneibacter gnavus, 2 µM
# [12] = The drug is tested on Edwardsiella tarda strain: ATCC23685 for biotransformation. The drug concentrations were measured before and after a 12-h incubation by liquid-chromatography-coupled mass spectrometry (LC–MS); conditions: 2 µM
# [13] = The drug is tested on Providencia stuartii strain: ATCC25827 for biotransformation. The drug concentrations were measured before and after a 12-h incubation by liquid-chromatography-coupled mass spectrometry (LC–MS); conditions: 2 µM
# [14] = bacteroides fragilis, 12 h, 2 µM
# Description: The drug is tested on Bacteroides fragilis strain: NCTC 9343 for biotransformation. The drug concentrations were measured before and after a 12-h incubation by liquid-chromatography-coupled mass spectrometry (LC–MS)
# [15] = bacteroides fragilis, 12 h, 2 µM; remark: listed apart in the source
# Description: The drug is tested on Bacteroides fragilis strain: 3397 (T10) for biotransformation. The drug concentrations were measured before and after a 12-h incubation by liquid-chromatography-coupled mass spectrometry (LC–MS)
# [16] = bacteroides thetaiotaomicron, 12 h, 2 µM
# Description: The drug is tested on Bacteroides thetaiotaomicron strain: 3731 for biotransformation. The drug concentrations were measured before and after a 12-h incubation by liquid-chromatography-coupled mass spectrometry (LC–MS)
# [17] = enterocloster bolteae, 12 h, 2 µM
# Description: The drug is tested on Clostridium bolteae strain: ATCCBAA-613 for biotransformation. The drug concentrations were measured before and after a 12-h incubation by liquid-chromatography-coupled mass spectrometry (LC–MS)
# [18] = bifidobacterium adolescentis, 12 h, 2 µM
# Description: The drug is tested on Bifidobacterium adolescentis strain: ATCC 15703 for biotransformation. The drug concentrations were measured before and after a 12-h incubation by liquid-chromatography-coupled mass spectrometry (LC–MS)
# [19] = bacteroides intestinalis, 12 h, 2 µM
# Description: The drug is tested on Bacteroides intestinalis strain: DSM17393 for biotransformation. The drug concentrations were measured before and after a 12-h incubation by liquid-chromatography-coupled mass spectrometry (LC–MS)
compound,measurement,setting,value
CC(C)c1nc(CN(C)C(=O)N[C@H](C(=O)N[C@@H](Cc2ccccc2)C[C@H](O)[C@H](Cc2ccccc2)NC(=O)OCc2cncs2)C(C)C)cs1 [RITONAVIR],Bacterial Biotransformation,[1],Compound NOT metabolized
same,Bacterial Biotransformation,[2],Compound NOT metabolized
same,Bacterial Biotransformation,[3],Compound NOT metabolized
same,Bacterial Biotransformation,[4],Compound NOT metabolized
same,Bacterial Biotransformation,[5],Compound NOT metabolized
same,Bacterial Biotransformation,[6],Compound metabolized
same,Bacterial Biotransformation,[7],Compound metabolized
same,Bacterial Biotransformation,[8],Compound NOT metabolized
same,Bacterial Biotransformation,[9],Compound NOT metabolized
same,Bacterial Biotransformation,[10],Compound NOT metabolized
same,Bacterial Biotransformation,[11],Compound NOT metabolized
same,Bacterial Biotransformation,[12],Compound NOT metabolized
same,Bacterial Biotransformation,[13],Compound NOT metabolized
same,Bacterial Biotransformation,[14],Compound metabolized
same,Bacterial Biotransformation,[15],Compound NOT metabolized
same,Bacterial Biotransformation,[16],Compound NOT metabolized
same,Bacterial Biotransformation,[17],Compound NOT metabolized
CCN1CCCC1CNC(=O)c1cc(S(N)(=O)=O)ccc1OC (centres undefined) [SULPIRIDE],Bacterial Biotransformation,[1],Compound NOT metabolized
same,Bacterial Biotransformation,[2],Compound NOT metabolized
same,Bacterial Biotransformation,[3],Compound NOT metabolized
same,Bacterial Biotransformation,[4],Compound NOT metabolized
same,Bacterial Biotransformation,[5],Compound NOT metabolized
same,Bacterial Biotransformation,[6],Compound NOT metabolized
same,Bacterial Biotransformation,[7],Compound NOT metabolized
same,Bacterial Biotransformation,[8],Compound NOT metabolized
same,Bacterial Biotransformation,[9],Compound NOT metabolized
same,Bacterial Biotransformation,[10],Compound NOT metabolized
same,Bacterial Biotransformation,[11],Compound NOT metabolized
same,Bacterial Biotransformation,[12],Compound NOT metabolized
same,Bacterial Biotransformation,[13],Compound NOT metabolized
same,Bacterial Biotransformation,[18],Compound NOT metabolized
same,Bacterial Biotransformation,[14],Compound NOT metabolized
same,Bacterial Biotransformation,[19],Compound NOT metabolized
same,Bacterial Biotransformation,[17],Compound NOT metabolized
CNS(=O)(=O)Cc1ccc2[nH]cc(CCN(C)C)c2c1.O=C(O)CCC(=O)O [SUMATRIPTAN SUCCINATE],Bacterial Biotransformation,[1],Compound NOT metabolized
same,Bacterial Biotransformation,[2],Compound NOT metabolized
same,Bacterial Biotransformation,[3],Compound NOT metabolized
same,Bacterial Biotransformation,[4],Compound NOT metabolized
same,Bacterial Biotransformation,[5],Compound NOT metabolized
same,Bacterial Biotransformation,[6],Compound NOT metabolized
same,Bacterial Biotransformation,[7],Compound NOT metabolized
same,Bacterial Biotransformation,[8],Compound NOT metabolized
same,Bacterial Biotransformation,[9],Compound NOT metabolized
same,Bacterial Biotransformation,[10],Compound NOT metabolized
same,Bacterial Biotransformation,[11],Compound NOT metabolized
same,Bacterial Biotransformation,[12],Compound NOT metabolized
same,Bacterial Biotransformation,[13],Compound NOT metabolized
same,Bacterial Biotransformation,[18],Compound NOT metabolized
same,Bacterial Biotransformation,[14],Compound NOT metabolized
same,Bacterial Biotransformation,[19],Compound NOT metabolized
same,Bacterial Biotransformation,[17],Compound NOT metabolized
Cc1ccc(-c2nc3ccc(C)cn3c2CC(=O)N(C)C)cc1 [ZOLPIDEM],Bacterial Biotransformation,[1],Compound NOT metabolized
same,Bacterial Biotransformation,[2],Compound NOT metabolized
same,Bacterial Biotransformation,[3],Compound NOT metabolized
same,Bacterial Biotransformation,[4],Compound NOT metabolized
same,Bacterial Biotransformation,[5],Compound NOT metabolized
same,Bacterial Biotransformation,[7],Compound NOT metabolized
same,Bacterial Biotransformation,[8],Compound NOT metabolized
same,Bacterial Biotransformation,[9],Compound NOT metabolized
same,Bacterial Biotransformation,[10],Compound NOT metabolized
same,Bacterial Biotransformation,[11],Compound NOT metabolized
same,Bacterial Biotransformation,[12],Compound NOT metabolized
same,Bacterial Biotransformation,[13],Compound NOT metabolized
same,Bacterial Biotransformation,[18],Compound NOT metabolized
same,Bacterial Biotransformation,[14],Compound NOT metabolized
same,Bacterial Biotransformation,[15],Compound NOT metabolized
same,Bacterial Biotransformation,[19],Compound NOT metabolized
same,Bacterial Biotransformation,[16],Compound NOT metabolized
same,Bacterial Biotransformation,[17],Compound NOT metabolized
